Usually IC90 stands for the concentration at which the effect reaches the 90% level.

This experiment has as its system M. tuberculosis H37Rv growth with meropenem, percent inhibition. Kind of experiment: beta-lactam sensitization of Mtb H37Rv, H37Rv (AID 434955).
With `CCN(CC)C(=O)CSc1nnc2nnc3cc(OC)ccc3n12`, the 90% effect concentration (IC90) is 13.4 µM.

For `CCN(CC)C(=O)C1CCCN(c2ccc([N+](=O)[O-])cc2/C=N/NC(=O)c2cccc(O)c2)C1` (centres undefined), the concentration for an effect of 90% (IC90) was 55.3 µM.

On to `CSc1ccc(/C=C/C(=O)NC23CC4CC(CC(C4)C2)C3)cc1`, for which the IC90 was 16.1 µM.

Regarding `C=CCNCCCOc1ccc(Cl)cc1C(C)(C)C`, the IC90 is 52.6 µM.

As to `COc1ccc(C(=O)/C=C/c2ccc(O)cc2)c(O)c1CC=C(C)C`, the IC90 was 75.1 µM.

With `Cc1ccc(C)c(N2CCN(CC3CC=CCC3)CC2)c1` (centres undefined), the IC90 is 60.7 µM.

As to `Cc1c(OCc2ccc(C(=O)O)cc2)ccc2c(-c3ccccc3)cc(=O)oc12`, the IC90 is 2.09 µM.

On to `O=C(CSc1ncn[nH]1)Nc1cccc2ccccc12`, for which the concentration for an effect of 90% (IC90) is 65 µM.

In the case of `Cc1cc(C(=O)CSc2nnnn2-c2ccccc2)c(C)n1-c1ccc2c(c1)OCO2`, the IC90 was 60.9 µM.

For the molecule `CC(C)C[C@H](NC(=O)c1nc[nH]c1C(=O)N1CCN(C(=O)OC(C)(C)C)CC1)C(=O)OCc1ccccc1`, the IC90 is 54.9 µM.

On to `CCCCNC(=O)c1onc(CSc2ccccc2C)c1C(=O)O`, for which the IC90 is 50.6 µM.

With `CC/C(=N\NC(=O)c1ccc(-c2ccccc2)cc1)C12CC3CC(CC(C3)C1)C2`, the IC90 is 43.7 µM.

`Cc1nnnn1/C(=C\c1ccccc1)C(=O)OCC(=O)NC1CCCCC1`: the IC90 is 17.6 µM.

With `O=c1oc(-c2ccco2)nc2sc3c(c12)CCCCC3`, the 90% effect concentration (IC90) is 38.5 µM.

With `O=S(=O)(Cc1ccccc1)c1cnc2ccccc2n1`, the concentration for an effect of 90% (IC90) is 48.6 µM.

With `CC(=O)Nc1cccc(/C(C)=N/NC(N)=S)c1`, the IC90 is 28.6 µM.

`Cc1cc(=O)[nH]c(N/N=C/c2c(F)c(F)c(F)c(F)c2F)n1`: the IC90 was 82.3 µM.

For the molecule `O=C(COC(=O)c1ccc([N+](=O)[O-])s1)NCc1ccccc1`, the IC90 was 39.4 µM.

With `CCOC(=O)c1nc(N2CCN(C(=O)OCC)CC2)c2c3c(sc2n1)CCCC3`, the concentration for an effect of 90% (IC90) is 40.9 µM.

For the molecule `CCOC(=O)c1c(C)[nH]c(C)c1C(=O)COC(=O)/C=C/c1ccc(OC(F)F)cc1`, the concentration for an effect of 90% (IC90) was 91.4 µM.

In the case of `Cc1cc(C)cc(SCc2noc(C(=O)NC(C)C)c2C(=O)O)c1`, the IC90 is 27.3 µM.

In the case of `CCC(C(=O)NC1C(=O)N2C(C(=O)O)=C(CSc3nnc(C)s3)CSC12)c1ccccc1` (centres undefined), the IC90 was 1.57 µM.

As for `Cc1cccc(Nc2nnc(SCC(=O)Nc3ncc(C(F)(F)F)cc3Cl)s2)c1C`, the IC90 is 21.5 µM.

In the case of `CCOC(=O)c1c(C)n(-c2ccccc2)c2ccc(OCCN(C)C)cc12`, the IC90 is 21.7 µM.

Consider `Cc1ccc(CN2C(=O)N/C(=C\c3ccc(-c4ccc(C(=O)O)cc4C)o3)C2=O)cc1`, for which the IC90 is 14.7 µM.

In the case of `CN(C)C1=C(Cl)C(=O)N(c2ccc(Cl)c(Cl)c2)C1=O`, the IC90 was 14.9 µM.

Turning to `Cc1nnnn1/C(=C\c1ccccc1)C(=O)OCC(=O)Nc1ccc(Cl)cc1F`, the IC90 is 25.5 µM.

For `CCOC(=O)c1ccc(C(=O)NNC(=O)C2CC=CCC2)cc1` (centres undefined), the IC90 is 40 µM.

For the molecule `CCOC(=O)CSc1nnc(CNC(=O)c2cccs2)n1CCc1ccccc1`, the IC90 is 49.5 µM.

As for `Cn1c(SCC(=O)OC2CCCCC2)nnc1-c1ccc2c(c1)OCO2`, the IC90 was 34.9 µM.

As for `CCC(CC)c1nnc(NC(=O)c2ccc(N3CCCCC3)c([N+](=O)[O-])c2)s1`, the IC90 is 44 µM.

Regarding `Cc1ccccc1OCC(=O)Nc1ccccc1N1CCCCC1`, the IC90 is 13.5 µM.

Regarding `O=C(c1ccc(-c2ccc(Cl)cc2)o1)N1CCN(S(=O)(=O)c2cccs2)CC1`, the concentration for an effect of 90% (IC90) is 99.6 µM.

`C=CCSc1nc2c(c(-c3ccsc3)c1C#N)CN(C)CC2`: the IC90 is 55.1 µM.

Take `CCN(CC(=O)Nc1ccc2c(c1)OCCO2)C(=O)c1ccc([N+](=O)[O-])s1`: the IC90 was 26 µM.

`CC12CCC(C/C1=N\N=C1\NC(=O)/C(=C\c3cccc(Br)c3)S1)C2(C)C` (centres undefined): the IC90 is 37.7 µM.

With `O=C(CCSc1ccc(Cl)c(Cl)c1)NC12CC3CC(CC(C3)C1)C2`, the IC90 is 12.3 µM.

Take `COc1ccc(N2C(=O)NC(=O)/C(=C\c3ccc([N+](=O)[O-])s3)C2=O)cc1`: the IC90 is 21.3 µM.

Regarding `CC1(C)CC(CCNC(=O)CCl)(c2ccccc2)CCO1` (centres undefined), the IC90 was 8.14 µM.

Turning to `COc1cc(/C=C/c2ccc3cccc([N+](=O)[O-])c3n2)ccc1OCC(=O)O`, the concentration for an effect of 90% (IC90) is 12 µM.

Regarding `Cc1c(C(=O)NCCC2=CCCCC2)sc2ncnc(N3CCCCC3C)c12` (centres undefined), the IC90 was 52 µM.

As for `CN1CCN(c2ccc(NC(=O)c3ccc(-c4cccc([N+](=O)[O-])c4)o3)cc2)CC1`, the IC90 is 6.71 µM.

`COc1ccc(-c2csc(NC(CO)c3nc4ccccc4n3Cc3ccc(C)cc3)n2)cc1` (centres undefined): the IC90 is 26.4 µM.

On to `Cc1ccc(-c2[nH][nH]c(=O)c(=O)c2N=Nc2ccccc2)cc1`, for which the IC90 is 86.2 µM.

`O=C(Nc1cccc(Cl)c1N1CCOCC1)c1ccc([N+](=O)[O-])o1`: the IC90 was 38.2 µM.

Take `NNC(=S)NC1CC2CC1C1C=CCC21` (centres undefined): the IC90 was 13.5 µM.

On to `O=C(Nc1ccccc1)Nc1csc2ccccc12`, for which the IC90 is 20.9 µM.

For the molecule `CCNC(=S)N/N=C1\C(=O)c2cccc3cccc1c23`, the IC90 was 7.61 µM.

`O=[N+]([O-])c1cc(Cl)cc(/C=N/NC(=S)Nc2cc(S(=O)(=O)N3CCOCC3)ccc2Cl)c1O`: the IC90 is 29.3 µM.

Regarding `CC/C(=N\NC(=S)NC(C)C)c1ccc(OC)c(OC)c1`, the IC90 is 15.5 µM.

Consider `COc1cc(CNCCO)cc(Br)c1OCc1ccccc1Cl`, for which the concentration for an effect of 90% (IC90) was 52.7 µM.

For `COC(=O)Cn1c2ccccc2c2nc(C)sc21`, the 90% effect concentration (IC90) was 27.8 µM.

With `O=[N+]([O-])c1cc(C(F)(F)F)ccc1NCCc1c[nH]c2ccc(O)cc12`, the IC90 was 72.9 µM.

Consider `Cc1ccc(C2=NN3C(=O)c4ccccc4C3C2)cc1` (centres undefined), for which the IC90 is 35.1 µM.

As to `O=C(CSC1CS(=O)(=O)c2cc([N+](=O)[O-])ccc21)NNC(=O)c1ccccc1` (centres undefined), the IC90 was 13.3 µM.

With `COC(=O)c1sc(-c2ccc(Cl)cc2)cc1NC(=O)COCC(=O)O`, the IC90 is 44.8 µM.

Consider `Cc1cc(C)c(-c2c(O)c3ccccc3n(C)c2=O)c(C)c1`, for which the IC90 was 42.2 µM.

Take `COCCCn1c(=O)/c(=C\c2cccc(OC)c2OC)s/c1=C(/C#N)C(=O)Nc1ccc(C(=O)O)cc1`: the 90% effect concentration (IC90) was 24.6 µM.

For `CCOC(=O)C1CSC(CC(=O)Nc2ccc(Cl)c(Cl)c2)C(=O)N1` (centres undefined), the IC90 is 35.4 µM.

Turning to `O=C1S/C(=C\C=C\c2ccco2)C(=O)N1c1ccccc1`, the IC90 was 77.6 µM.

On to `COc1ccc(NC(C)C(=O)N/N=C/c2ccc([N+](=O)[O-])s2)cc1` (centres undefined), for which the IC90 was 4.79 µM.

Turning to `Cc1cc(C)c(OCC(=O)Nc2nc3ccccc3[nH]2)c(C)c1`, the IC90 is 65.2 µM.

As for `C/C(=N\NC(=O)c1ccncc1)c1c(O)n(-c2ccccc2)c(=O)[nH]c1=O`, the IC90 was 3.94 µM.

Consider `C=C(C)C1Cc2c(C)nn(-c3cccc4ccccc34)c2C1` (centres undefined), for which the IC90 was 47.4 µM.

Turning to `COc1ccc(-n2cc(-c3ccccc3)c3c(NN4CCOCC4)ncnc32)cc1`, the 90% effect concentration (IC90) is 36.1 µM.

Take `CCOc1ccc(N2C(=O)CC(N)C2=O)cc1` (centres undefined): the IC90 was 52.4 µM.

Regarding `O=C(Oc1c(-c2ccccc2)c(=O)n2c3c(cccc13)CC2)c1ccc(F)cc1`, the concentration for an effect of 90% (IC90) is 34 µM.

`CCOC(=O)c1c(NC(=O)COC(=O)c2ncc(Cl)c(Cl)c2Cl)sc(C(=O)N(C)C)c1C`: the concentration for an effect of 90% (IC90) is 27.7 µM.

On to `CCCCCn1c(=O)c(C(=O)Nc2cnccn2)c(O)c2ccccc21`, for which the IC90 was 13.8 µM.

As to `O=C(/C=C/c1cccnc1)c1ccc(O)cc1`, the IC90 is 50.4 µM.

Turning to `CCCOc1ccccc1NC(=O)/C=C/C(N)=O`, the IC90 is 27.7 µM.

Take `Cc1ccccc1CSc1nnc(C)c(=O)n1N`: the IC90 is 32.3 µM.

Take `O=c1oc(-c2cccs2)nc2sc3c(c12)CCCC3`: the IC90 is 29.7 µM.

Take `Cc1cc(=S)nc(-c2ccccn2)[nH]1`: the IC90 was 19.7 µM.

Turning to `Nc1ccc(N=Nc2ccccc2O)c(N)c1`, the IC90 is 34 µM.

As for `COc1ccccc1C(c1c(N)n(C)c(=O)n(C)c1=O)C(C)[N+](=O)[O-]` (centres undefined), the IC90 is 18 µM.

Turning to `CN1C/C(=N\S(=O)(=O)c2ccccc2)N(C)C1=O`, the concentration for an effect of 90% (IC90) was 33.7 µM.

Take `Cc1[nH]n(-c2ccccc2)c(=O)c1/C=N/NC(=O)c1cccc([N+](=O)[O-])c1`: the concentration for an effect of 90% (IC90) was 70.7 µM.

As for `Cc1ccc(C2=N/C(=C\c3cccc(F)c3)C(=O)O2)cc1`, the IC90 was 4.02 µM.

On to `Cc1cccc(-n2nc([N+](=O)[O-])c(=NC3CCN(Cc4ccccc4)CC3)n2O)c1`, for which the IC90 was 30.5 µM.

With `Cc1nnc(SCc2cccc(Cl)c2)n(N)c1=O`, the 90% effect concentration (IC90) was 10.1 µM.

`CC1CCN(C(=S)NC(=O)c2ccccc2)CC1`: the IC90 was 13.6 µM.

With `CC(C)(C)c1ccc(OCc2ccc(C(=O)N/N=C3\CC4CC=CC34)cc2)cc1` (centres undefined), the IC90 is 45.3 µM.

`COc1ccc(-c2cc(C(F)F)nc(-n3nc(C)cc3C)n2)cc1`: the IC90 is 54.1 µM.

Regarding `C/C(=N\NC(=S)Nc1ccccc1C)c1ccc(O)cc1`, the IC90 is 7.97 µM.

`Cc1nnc(SCC2=C(C(=O)O)N3C(=O)C(NC(=O)COc4ccc(F)cc4)C3SC2)s1` (centres undefined): the IC90 is 9.33 µM.

Consider `O=C1COc2ccc(C(=O)CCl)cc2N1`, for which the IC90 is 44.4 µM.

As to `CC(C)C1CC(CCNCc2ccc(N(C)C)cc2)(c2ccccc2)CCO1` (centres undefined), the IC90 is 26.9 µM.

As for `O=C1OC(c2ccco2)=N/C1=C\c1ccc(-c2cccc(C(F)(F)F)c2)o1`, the IC90 was 53.4 µM.

With `CC(=O)Nc1ccc(S(=O)(=O)Nc2cccc3cccnc23)cc1`, the IC90 was 43.3 µM.

`COc1ccc(-c2cc(=Nc3ccc(C)cc3)c3ccccc3o2)cc1`: the IC90 is 98.3 µM.

For `Cc1cccc(CSc2nnc(C)c(=O)n2N)c1`, the IC90 was 9.9 µM.

With `Cc1ccc(C(=O)Nc2c(C)cc(C)c3cccnc23)cc1`, the IC90 is 10.5 µM.

With `COc1cccc(/C=N/NC(=O)c2cnccn2)c1O`, the IC90 was 13.9 µM.

For `Cc1cc(C(=O)CN2C(=O)NC(C)(CC(C)C)C2=O)c(C)n1-c1ccc2c(c1)OCO2` (centres undefined), the IC90 was 96.4 µM.

As to `COc1cc(C(=S)N2CCOCC2)ccc1OC(=O)c1ccc([N+](=O)[O-])cc1[N+](=O)[O-]`, the 90% effect concentration (IC90) was 5.92 µM.

On to `Cc1ccccc1OCC(=O)N/N=C/c1cccc(Oc2ccc([N+](=O)[O-])cc2[N+](=O)[O-])c1`, for which the IC90 is 5.4 µM.

`Cc1ccccc1NC(=O)/C(C#N)=C\c1cc(C)n(-c2ccc(C(=O)O)cc2)c1C`: the IC90 is 51.1 µM.

For `C/C(CC(=O)NCc1ccco1)=N\NC(=O)CC#N`, the 90% effect concentration (IC90) was 17.6 µM.
